Laboratory results as given in article PMC11809180, “RA-PR058, a novel ramalin derivative, reduces BACE1 expression and phosphorylation of tau in Alzheimer’s disease mouse models” (Animal Cells and Systems, 2025).
Read-outs that look alike come from different tables or passages of the source.

How the values were obtained:
tau = assay: Tau phosphorylation in brain of 3xTg-AD mice (western blot, DAB staining); format: in vivo, mouse; details: 20 mg/kg oral daily 4 weeks
Protocol: 3xTg-AD (B6;129-Tg(APPSwe,tauP301L)1Lfa Psen1^tm1Mpm/Mmjax) mice and their littermate wild-type (WT) mice were used in this study. Each experimental group consisted of 4–8 mice, with groups designated as WT, 3xTg-AD Vehicle, and 3xTg-AD RA-PR058. All mice were maintained in a 12-hour light/dark cycle with free access to food and water. 7-month-old age of mice were administered with 20 mg/kg of RA-PR058 orally once a day for 1 month followed by the elevated plus maze test. All animal experimental procedures were approved by the Institutional Animal Care and Use Committee of Sungkyunkwan University (SKKUIACUC2022-10-41-1).
After EPM was conducted, mice were sacrificed, and brain tissues were collected as previously described (Park et al. [2021]). Mice were anesthetized by injecting Zoletil (Virbac) and Rompun (Bayer) intraperitoneally. After mice were anesthetized, they were perfused with phosphate-buffered saline (PBS). Then, brains were extracted and cut into two hemispheres; one hemisphere was preserved in 4% paraformaldehyde and the other was dissected into the cortex and hippocampus. Dissected tissues were then snap-frozen in liquid nitrogen and stored at −80 ℃ until further biochemical analysis.
Samples for western blot analysis were prepared as previously described (Gwon et al. [2012]). Cells were lysed with T-PER™ Tissue Protein Extraction Reagent (Thermo Fisher Scientific) supplemented with protease/phosphatase inhibitor cocktail (Thermo Fisher Scientific) and incubated at 4 ℃ for 10 minutes. After incubation, lysed samples were centrifuged at 13,000 x rpm for 10 minutes at 4 ℃ and the supernatant were used for western blot analysis. The cortices and hippocampi tissues were homogenized using RIPA lysis buffer (Millipore) supplemented with protease/phosphatase inhibitor cocktail and incubated at 4 ℃ for 30 minutes. Following incubation, lysed tissues were centrifuged at 13,000 x rpm for 30 minutes at 4 ℃ and the supernatant were used for western blot analysis. Protein concentrations were measured using Pierce™ BCA Protein Assay Kits (Thermo Fisher Scientific). Equal amounts of proteins were mixed with NuPAGE™ LDS Sample Buffer (Invitrogen) and 5% 2-mercaptoethanol (Sigma) and then boiled at 95 ℃ for 5 minutes. 4–12 μg of proteins were loaded onto SDS-polyacrylamide gels and electrophoresed (SDS-PAGE) until the protein bands were fully separated. After SDS-PAGE, the protein bands were transferred onto polyvinylidene fluoride (PVDF) membranes (Millipore). Following transfer, PVDF membranes were blocked with 5% non-fat skim milk in tris-buffered saline with Tween20 (Junsei) (TBS-T) for 1 hour at room temperature. Then, PVDF membranes were incubated overnight at 4 ℃ with primary antibodies against APP (6E10, BioLegend, 803001, 1:1,000), AT8 (Invitrogen, MN1020, 1:1,000), AT180 (Invitrogen, MN1040, 1:1,000), BACE1 (Cell Signaling Technology, 5606, 1:1,000), β-Actin (Sigma, A5441, 1:10,000), p-JNK (Cell Signaling Technology, 4671, 1:1,000), JNK (Cell Signaling Technology, 9252, 1:1,000), p-Tau^S396 (Invitrogen, 44-752G, 1:1,000), Tau13 (BioLegend, 835201, 1:1,000). Following incubation, membranes were washed with TBS-T and incubated with horseradish peroxidase-conjugated anti-mouse secondary antibody (Sigma, AP124P, 1:5,000) or anti-rabbit secondary antibody (Invitrogen, 31460, 1:5,000) for 1 hour at room temperature. […] Protein bands were quantified using ImageJ (NIH). […]

[1] = Plasma pharmacokinetics after IV and PO administration; format: in vivo; details: Sprague-Dawley, rat, 10 mg/kg, S.D. rats; for Cmax / half-life / AUC(0-t): in vivo; for AUC(0-t): read-out: AUC0-7h; for Tmax: plasma
Protocol: Pharmacokinetic assays were conducted by NeuroVis (Republic of Korea). 10 mg/kg of RA-PR058 was administered to Sprague–Dawley rats by either oral administration route or intravenous injection route. Blood sampling was conducted using the BASi Culex ABS system. After cannulation, catheters were inserted into the jugular vein and the carotid artery of the rats, with the system programmed to collect 200 μL samples. Collected blood samples were centrifuged at 12,000 x rpm for 10 minutes to separate plasma, which was then immediately stored at −80 ℃. For brain pharmacokinetics, 10 mg/kg of RA-PR058 was administered orally to Sprague–Dawley rats, followed by collection of both blood and brain tissue. After collection, samples were mixed with the internal standard, ofloxacin, and centrifuged at 13,000 x rpm for 5 minutes at 4 ℃. The resulting supernatants were then combined with 50% methanol and analyzed by LC-MS/MS.

## Cl.N[C@@H](CCC(=O)NNc1ccccc1F)C(F)F [RA-PR058, (S)-4-amino-5,5-difluoro-N'-(2-fluorophenyl)pentanehydrazide hydrochloride]
tau; cortex, normalized with Tau13
  Tau phosphorylation at Ser202/Thr205 (AT8): significantly reduced
  Tau phosphorylation at Ser396: significantly reduced
  Tau phosphorylation at Thr231 (AT180): significantly reduced
tau; hippocampus
  AT8 expression in the hippocampus: significantly reduced
tau; hippocampus, AT180, p-Tau S396
  Other phosphorylated tau species in the hippocampus: did not affect
[1]; IV
  Cmax: 4260 ng/mL
  half-life: 63.5 min
  AUC(0-t): 5700 ng·h/mL
  Tmax: 17.5 min
[1]; PO
  Cmax: 3480 ng/mL
  half-life: 94.5 min
  AUC(0-t): 6090 ng·h/mL
  Tmax: 27.5 min
